Columns and labels:
human H1 receptor = target: T1, human H1 receptor (Homo sapiens, UniProt P35367); experiment: Histamine H1 functional antagonist assay (FLIPR): determination of functional pKi values; format: cell-based; details: CHO cells expressing human H1, histamine at EC80; read-out: average pKi (pKb) at H1 (converted)
T1 construct: expressed in transfected cells
Excerpt: H1 receptor cell line generation and FLIPR assay protocol
1. Generation of histamine H1 cell line
The human H1 receptor is cloned using known procedures described in the literature [Biochem. Biophys. Res. Commun., 201(2):894 (1994)]. Chinese hamster ovary (CHO) cells stably expressing the human H1 receptor are generated according to known procedures described in the literature [Br. J. Pharmacol., 117(6):1071 (1996)].
Histamine H1 functional antagonist assay: Determination of functional pKi values […]
10 μl of test compound, diluted to the required concentration in Tyrodes buffer+probenecid (or 10 μl Tyrodes buffer+probenecid as a control) is added to each well and the plate is incubated for 30 min at 37° C., 5% CO2. The plates are then placed into a FLIPR™ (Molecular Devices, UK) to monitor cell fluorescence (λex=488 nm, αEM=540 nm) in the manner described in Sullivan et al., (In: Lambert DG (ed.), Calcium Signaling Protocols, New Jersey: Humana Press, 1999, 125-136) before and after the addition of 10 μl histamine at a concentration that results in the final assay concentration of histamine being EC80.
Functional antagonism is indicated by a suppression of histamine induced increase in fluorescence, as measured by the FLIPR™ system (Molecular Devices). By means of concentration effect curves, functional affinities are determined using standard pharmacological mathematical analysis.

[1] = test system: histamine-induced nasal congestion; experiment: Intranasal challenge method: whole body plethysmography, histamine-induced nasal congestion; format: in vivo, guinea pig; details: 24 hours after dosing, compared to azelastine; intranasal 1 mg/ml (FIG. 3, Example 24D)
Protocol: FIG. 3: depicts the duration of 4-[(4-chlorophenyl)methyl]-2-({(2R)-1-[4-(4-{[3-(hexahydro-1H-azepin-1-yl)propyl]oxy}phenyl)butyl]-2-pyrrolidinyl}methyl)-1(2H)-phthalazinone, dihydrochloride salt (Example 24D) and azelastine in a conscious Guinea-Pig model of histamine-induced nasal congestion. Animals were exposed to histamine at the time indicated after an intranasal dose of 1 mg/ml of compound. Mean ±s.e. mean (n=6-10 per group).
Intranasal Challenge Method: Whole Body Plethysmography
Female Dunkin-Hartley guinea pigs 150-250 g are sensitised twice daily for 5 days (week 1) with ovalbumin (OVA) and aluminium hydroxide (AI(OH)3 or Alum) in physiological saline, 25 μl/nostril. Solution is made up at 20 μg/ml OVA, 180 mg/ml Alum. During weeks 2 and 3, animals receive 25 μl/nostril of OVA (5 mg/ml) once daily. […]
Pretreatment with test compound is performed at various times prior to histamine challenge. Efficacy dose-response curves are determined 1 h after dosing whereas duration of action is studied up to 7 days post dose. […]
After the stipulated pre-dose time has been reached, guinea pigs are re-anaesthetised with isoflurane and dosed with either 15 mM histamine or phosphate-buffered saline (PBS), (25 μl per nostril). […] Data are analysed using ANOVA with post-hoc Fishers LSD test (general linear models, Statistica®) and finally Hochberg adjustment. […]

T1 sequence (P35367 whole entry): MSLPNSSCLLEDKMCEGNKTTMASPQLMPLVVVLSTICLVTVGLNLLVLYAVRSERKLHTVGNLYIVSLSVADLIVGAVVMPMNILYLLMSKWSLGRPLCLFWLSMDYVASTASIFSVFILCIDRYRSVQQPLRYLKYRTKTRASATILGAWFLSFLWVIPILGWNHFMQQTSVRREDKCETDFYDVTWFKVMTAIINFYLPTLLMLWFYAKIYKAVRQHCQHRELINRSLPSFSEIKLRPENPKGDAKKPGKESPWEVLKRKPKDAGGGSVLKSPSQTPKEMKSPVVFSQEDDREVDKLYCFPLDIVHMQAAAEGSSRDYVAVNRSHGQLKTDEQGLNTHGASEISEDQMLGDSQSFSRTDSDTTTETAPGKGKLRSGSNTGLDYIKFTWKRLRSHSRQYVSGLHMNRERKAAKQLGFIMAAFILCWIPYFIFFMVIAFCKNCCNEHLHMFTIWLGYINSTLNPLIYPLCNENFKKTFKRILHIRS

Structure (SMILES): O=c1c2ccccc2c(Cc2ccc(Cl)cc2)nn1C[C@H]1CCCN1CCCCc1ccc(OCCCN2CCCCCC2)cc1 [Example 24, 4-[(4-Chlorophenyl)methyl]-2-({(2R)-1-[4-(4-{[3-(hexahydro-1H-azepin-1-yl)propyl]oxy}phenyl)butyl]-2-pyrrolidinyl}methyl)-1(2H)-phthalazinone free base]
- Ki (human H1 receptor): ~0.0158 µM
- inhibition of nasal congestion in the Guinea Pig whole body plethysmography model [1]: statistically significant inhibition of nasal congestion

Reference: patent US20080039444A1, “COMPOUNDS” (GLAXO GROUP LIMITED, priority 2006, published 2008)
